Source: publication PMC7375528, “Piperidine scaffold as the novel P2-ligands in cyclopropyl-containing HIV-1 protease inhibitors: Structure-based design, synthesis, biological evaluation and docking study” (PLoS ONE, 2020)

Columns and labels:
[1] = target: T1, wild-type HIV-1 PR (Human immunodeficiency virus type 1 group M subtype B, UniProt P04585); assay: In vitro HIV-1 PR activity assay (FRET); type: biochemical
T1 construct: HIV-1 protease was cloned and heterologously expressed in Escherichia coli and purified; made in house; host or cells: Escherichia coli
Experimental: (§1) The inhibitory effect of all new designed inhibitors were measured using fluorescence resonance energy transfer (FRET) method. […] The energy transfer donor (EDANS) and acceptor (DABCYL) dyes are labeled at two ends of the peptide to perform FRET. Excitation and emission wavelengths were set at 340 nm and 490 nm. Inhibitors were dissolved in dimethylsulfoxide (DMSO) and diluted to appropriate concentrations. HIV-1 protease was cloned and heterologously expressed in Escherichia coli and purified. The experiment was carried out in 96-well plates. The FRET assay reaction buffer contained 0.1 M sodium acetate, 1 M sodium chloride, 1 mM ethylenediaminetetraacetic acid (EDTA), 1 mM dithiothreitol (DTT), 2% DMSO and 1 mg/mL bovine serum albumin (BSA) with an adjusted pH 4.7. Protease and inhibitor were mixed and incubated for 20–30 mins at room temperature and then the substrate was added. Each reaction was recorded for about 10 mins. From plots of concentration versus the calculated percent inhibition, IC50 values were determined.
as §1, with “20-30” for “20–30”, “mins.” for “mins. From plots of concentration versus the calculated percent inhibition, IC50 values were determined.”

[2] = system: wild-type HIV-1 variants; assay: HIV-1 infectivity assay, wild-type; type: cell-based; settings: Human immunodeficiency virus 1, read-out: inhibition against wild-type HIV-1 variants
Experimental: (§2) . Inhibitors dissolved in dimethylsulfoxide (DMSO) and diluted to appropriate concentrations, were added into culture medium at 5 hours of post-transfection. After incubating for 48 hours at temperature 37 °C, pseudotyped viruses in 10 μL of supernatant were used to infect SupT1 cells for 48 hours, followed by measuring luciferase activity of newly infected cells using Centro LB960 (Berthold).
For the assay using wild type HIV-1, 1×10^6 SupT1 cells were infected with 100 μL HIV-1 NL4-3 in the presence of 100 nM chemicals and 10 μg/mL polybrene, keeping a total volume of 500 μL (Spin infection at 1800rpm, 45min). Cells were washed once in the next morning and medium were replaced with fresh medium containing 100 nM chemicals. At 48 hpi, viruses were harvested and 50 μL of viruses were used to infect TZM-bl cells, followed by measuring luciferase activity in the infected cells.
(§3) Fig 6 Inhibition of inhibitors against wild-type and DRV-resistant HIV-1 variants.

[3] = system: DRV-resistant HIV-1 variants; assay: HIV-1 infectivity assay, DRV-resistant; type: cell-based; settings: Human immunodeficiency virus 1, read-out: inhibition against DRV-resistant HIV-1 variants
Experimental: as §2, §3

[4] = Cytotoxicity assay (cell counting kit-8); type: cell-based; settings: human; 293T cells, CCK-8, 24h exposure
Experimental: Selected inhibitors were further evaluated in cytotoxicity assay using a cell counting kit-8 assay. […] After 24h of culture, 1μL of drugs were added to each well. After another 24h of culture, 10 μL of CCK-8 was added to each well. Absorbance was quantified at wavelength 450 nm using an EnVision multilabel reader (PerkinElmer) after 2h at room temperature.

[5] = system: HIV-1 protease; set-up: method as in PMID 32057582; settings: previously reported PIs; cited from earlier work

| SMILES | IC50 [1] [nM] | improvement of potency over 23a ([1]; ratio of IC50 values, (R)- vs (S)-configuration) [fold] | inhibition at 10 µM [2] [%] | inhibition at 10 µM [3] [%] | CC50 at 24 h [4] [nM] | melting point [°C] | IC50 [5] [nM] |
| --- | --- | --- | --- | --- | --- | --- | --- |
| COc1ccc(S(=O)(=O)N(C[C@@H](O)[C@H](Cc2ccccc2)NC(=O)[C@@H]2CCCNC2)C2CC2)cc1 [22a, (R)-N-((2S,3R)-4-((N-cyclopropyl-4-methoxyphenyl)sulfonamido)-3-hydroxy-1-phenylbutan-2-yl)piperidine-3-carboxamide] | 3.61 | 120 | 42 | 26 | > 100000 | 162.8 to 164.3 | – |
| COc1ccc(S(=O)(=O)N(C[C@@H](O)[C@H](Cc2ccccc2)NC(=O)[C@@H]2CCCN(C)C2)C2CC2)cc1 [24a, (R)-N-((2S,3R)-4-((N-cyclopropyl-4-methoxyphenyl)sulfonamido)-3-hydroxy-1-phenylbutan-2-yl)-1-methylpiperidine-3-carboxamide] | 8.07 ± 3.59 | – | 16 | 8 | > 100000 | 86.4 to 88.2 | – |
| CN1CCC[C@@H](C(=O)N[C@@H](Cc2ccccc2)[C@H](O)CN(C2CC2)S(=O)(=O)c2ccc(C(F)(F)F)cc2)C1 [24b, (R)-N-((2S,3R)-4-((N-cyclopropyl-4-(trifluoromethyl)phenyl)sulfonamido)-3-hydroxy-1-phenylbutan-2-yl)-1-methylpiperidine-3-carboxamide] | 9.28 ± 5.66 | – | 12 | 7 | > 100000 | 82.9 to 84.7 | – |
| COc1ccc(S(=O)(=O)N(C[C@@H](O)[C@H](Cc2ccccc2)NC(=O)OCCN2CCOCC2)C2CC2)cc1 [A] | – | – | – | – | – | – | 53 |
| O=C(N[C@@H](Cc1ccccc1)[C@H](O)CN(C1CC1)S(=O)(=O)c1ccc(C(F)(F)F)cc1)N1CCOCC1 [B] | – | – | – | – | – | – | 47 |
